Results as given in US8076286B2, “Antimicrobial peptides and use thereof” (priority 2006, dated 2011).
Ends that are not written are not given here.

Columns and labels:
[1] = system: E.coli ATCC 25922; experiment: Radial diffusion assay (RDA), E. coli; type: cell-based, Escherichia coli; conditions: zone of bacterial clearance in RDA; unit mm only in FIG. 1 legend, not in Table 2A
Method: (§1) Escherichia coli ATCC25922, Pseudomonas aeruginosa ATCC27853, Staphylococcus aureus ATCC29213, Bacillus subtilis ATCC6633 bacterial isolates, and the fungal isolate Candida albicans ATCC90028, were obtained from the Department of Bacteriology, Lund University Hospital.
(§2) Radial diffusion assays (RDA) were performed essentially as described earlier (Lehrer, R. I., Rosenman, M., Harwig, S. S., Jackson, R. & Eisenhauer, P. (1991) Ultrasensitive assays for endogenous antimicrobial polypeptides, J Immunol Methods. 137, 167-73.).
(§3) Briefly, bacteria (E. coli, P. aeruginosa, S. aureus, B. subtilis) or fungi (C. albicans) were grown to mid-logarithmic phase in 10 ml of full-strength (3% w/v) trypticase soy broth (TSB) (Becton-Dickinson, Cockeysville, Md.). The microorganisms were washed once with 10 mM Tris, pH 7.4. 4×10^6 bacterial cfu or 1×10^5 fungal cfu was added to 5 ml of the underlay agarose gel, consisting of 0.03% (w/v) TSB, 1% (w/v) low-electroendoosmosistype (Low-EEO) agarose (Sigma, St Louise Mo.) and a final concentration of 0.02% (v/v) Tween 20 (Sigma). The underlay was poured into a Ø85 mm petri dish. After agarose solidified, 4 mm-diameter wells were punched and 6 μl of test sample was added to each well. Plates were incubated at 37° C. for 3 hours to allow diffusion of the peptides. […]

[2] = system: S.aureus ATCC 29213; experiment: Radial diffusion assay (RDA), S. aureus; type: cell-based, Staphylococcus aureus; conditions: zone of bacterial clearance in RDA; unit mm only in FIG. 1 legend, not in Table 2A
Method: as §1, §2, §3

[3] = Antimicrobial activity stated in text, microorganism not specified; type: cell-based; conditions: statement in words, no organism or method given
[4] = system: Erythrocytes; experiment: Hemolysis assay; type: cell-based; conditions: % of Triton X-100 induced hemolysis; 1 h at 37° C.; peptides 3-60 μM, concentration for table not stated
Method: EDTA-blood was centrifuged at 800 g for 10 min, whereafter plasma and buffy coat were removed. The erythrocytes were washed three times and resuspended in 5% PBS, pH 7.4. The cells were then incubated with end-over-end rotation for 1 h at 37° C. in the presence of peptides (3-60 μM). 2% Triton X-100 (Sigma-Aldrich) served as positive control. The samples were then centrifuged at 800 g for 10 min. The absorbance of hemoglobin release was measured at λ 540 nm and is in the plot expressed as % of TritonX-100 induced hemolysis (FIG. 2).

[5] = Liposome leakage assay (carboxyfluorescein), PA liposomes; type: biochemical; conditions: dioleoylphosphatidylcholine 30/dioleoylphosphatidic acid 30/cholesterol 40 mol % liposomes, unit not in table; for CF leakage PA + NaCl: 10 mM Tris pH 7.4, with 150 mM NaCl; for CF leakage PA − NaCl: 10 mM Tris pH 7.4, without NaCl
Method: (§4) Dry lipid films were prepared by dissolving either dioleoylphosphatidylcholine (Avanti Polar Lipids, Alabaster, Ala.) (60 mol %) and cholesterol (Sigma, St Louis, Mo.) (40 mol %), or dioleoylphosphatidylcholine (30 mol %), dioleoylphosphatidic acid (Avanti Polar Lipids, Alabaster, Ala.) (30 mol %) and cholesterol (40 mol %) in chloroform, and then removing the solvent by evaporation under vacuum overnight. Subsequently, buffer solution containing 10 mM Tris, pH 7.4, either with or without additional 150 mM NaCl, was added together with 0.1 M carboxyfluorescein (CF) (Sigma, St Louis, Mo.). After hydration, the lipid mixture was subjected to eight freeze-thaw cycles consisting of freezing in liquid nitrogen and heating to 60° C. Unilamellar liposomes with a diameter of about 130 nm (as found with cryo-TEM; results not shown) were generated by multiple extrusions through polycarbonate filters (pore size 100 nm) mounted in a LipoFast miniextruder (Avestin, Ottawa, Canada). Untrapped carboxyfluorescein was then removed by filtration through two subsequent Sephadex G-50 columns with the relevant Tris buffer as eluent. Both extrusion and filtration was performed at 22° C. In the liposome leakage assay, the well known self-quenching of CF was used. Thus, at 100 mM CF is self-quenched, and the recorded fluorescence intensity from liposomes with entrapped CF is low. […] The CF release was determined by monitoring the emitted fluorescence at 520 nm from a liposome dispersion, ([…] in 10 mM Tris pH 7.4). An absolute leakage scale is obtained by disrupting the liposomes at the end of the experiment through addition of 0.8 mM Triton X100 (Sigma, St Louis, Mo.), thereby causing 100% release and dequenching of CF. A SPEX-fluorolog 1650 0.22-m double spectrometer (SPEX Industries, Edison, N.J.) was used for the liposome leakage assay (see Table 3, FIG. 3).

[6] = CD-spectroscopy, helical content; type: physicochemical; conditions: 10 mM Tris, pH 7.4, 37° C., peptide 10 μM; for Helical content, PA: PA liposome dispersion; for Helical content, PA / Helical content, PC: lipid 100 μM; for Helical content, PC: PC liposome dispersion; for Helical content, Buffer: buffer only
Method: The CD spectra of the peptides in solution were measured on a Jasco J-810 Spectropolarimeter (Jasco, U.K.). The measurements were performed at 37° C. in a 10 mm quartz cuvet under stirring and the peptide concentration was 10 μM. The effect of on peptide secondary structure of liposomes at a lipid concentration of 100 μM was monitored in the range 200-250 nm. The only peptide conformations observed under the conditions investigated were α-helix and random coil. The fraction of the peptide in α-helical conformation, Xα, is calculated from Xα=(A−Ac)/(Aα−Ac) (1)
where A is the recorded CD signal at 225 nm, and Aα and Ac are the CD signal at 225 nm for a reference peptide in 100% α-helix and 100% random coil conformation, respectively. 100% α-helix and 100% random coil references were obtained from 0.133 mM (monomer concentration) poly-L-lysine in 0.1 M NaOH and 0.1 M HCl, respectively. To account for the instrumental differences between measurements the background value (detected at 250 nm, where no peptide signal is present) was subtracted. Signals from the bulk solution were also corrected for (see Table 4).

[7] = Liposome leakage assay (carboxyfluorescein), PC liposomes; type: biochemical; conditions: dioleoylphosphatidylcholine 60 mol %/cholesterol 40 mol % liposomes, scale 100% = Triton X100 release, unit not in table; for CF leakage PC + NaCl: 10 mM Tris pH 7.4, with 150 mM NaCl; for CF leakage PC − NaCl: 10 mM Tris pH 7.4, without NaCl
Method: as §4

Molecule | Bacteria E.coli ATCC 25922 Mean [1] | Bacteria S.aureus ATCC 29213 Mean [2] | antimicrobial effect [3] | Erythrocytes Hemolysis (%) Mean [4] | CF leakage PA + NaCl [5] | CF leakage PA − NaCl [5] | Helical content, PA [6] | Helical content, PC [6] | Helical content, Buffer [6] | CF leakage PC + NaCl [7] | CF leakage PC − NaCl [7]
CC(C)C[C@H](NC(=O)[C@H](Cc1c[nH]c2ccccc12)NC(=O)[C@H](CCCCN)NC(=O)[C@H](CCCCN)NC(=O)[C@H](CC(C)C)NC(=O)[C@H](CCCNC(=N)N)NC(=O)[C@H](Cc1ccccc1)NC(=O)[C@@H](N)CC(C)C)C(=O)N[C@@H](CCC(N)=O)C(=O)N[C@@H](CCCCN)C(=O)N[C@H](C(=O)N[C@H](C(=O)N[C@@H](CCCCN)C(=O)N[C@@H](CCC(N)=O)C(=O)N[C@@H](Cc1ccccc1)C(=O)NCC(=O)N[C@@H](CCC(=O)O)C(=O)O)[C@@H](C)O)C(C)C [SEQ ID NO:34, LFRIKKWLQKVTKQFGE] | 6.65 mm | 4.75 mm |  |  |  |  |  |  |  |  | 
LFRLKKWIRKVTRLFG [SEQ ID NO:9, LFRLKKWIRKVTRLFG] | 11.03 mm | 8.59 mm | displayed antimicrobial activity |  |  |  |  |  |  |  | 
CC[C@H](C)[C@H](NC(=O)[C@H](CCCCN)NC(=O)[C@H](CCC(=O)O)NC(=O)[C@H](CCCCN)NC(=O)[C@H](CO)NC(=O)[C@H](CCCCN)NC(=O)[C@H](CCCNC(=N)N)NC(=O)[C@H](Cc1ccccc1)NC(=O)[C@H](Cc1ccccc1)NC(=O)[C@H](CC(=O)O)NC(=O)CNC(=O)[C@H](CC(C)C)NC(=O)[C@@H](N)CC(C)C)C(=O)NCC(=O)N[C@@H](CCCCN)C(=O)N[C@@H](CCC(=O)O)C(=O)N[C@@H](Cc1ccccc1)C(=O)N[C@@H](CCCCN)C(=O)N[C@@H](CCCNC(=N)N)C(=O)N[C@H](C(=O)N[C@H](C(=O)N[C@@H](CCC(N)=O)C(=O)N[C@@H](CCCNC(=N)N)C(=O)N[C@H](C(=O)N[C@@H](CCCCN)C(=O)N[C@@H](CC(=O)O)C(=O)N[C@@H](Cc1ccccc1)C(=O)N[C@@H](CC(C)C)C(=O)N[C@@H](CCCNC(=N)N)C(=O)N[C@@H](CC(N)=O)C(=O)N[C@@H](CC(C)C)C(=O)N[C@H](C(=O)N1CCC[C@H]1C(=O)N[C@@H](CCCNC(=N)N)C(=O)N[C@H](C(=O)N[C@@H](CCC(=O)O)C(=O)N[C@@H](CO)C(=O)O)[C@@H](C)O)C(C)C)[C@@H](C)CC)C(C)C)[C@@H](C)CC [LL-37] |  |  |  | 16.43% |  |  |  |  |  |  | 
CQKRYRGHKITHKMIC (listed as Homo sapiens) [CQK16, FA11_HUMAN aa 545-560] |  |  |  |  | 15 ± 2% | 18 ± 5% | 8 ± 2% | 10 ± 2% | 10 ± 2% | 14 ± 4% | 64 ± 3%
NWRENLDRDIALMKLKKP (listed as Homo sapiens) [NVR18] |  |  |  |  | 0 ± 1% | 2 ± 1% |  |  |  | 0 ± 1% | 4 ± 1%
SEKTLRKWLKMFKKRQLELY (listed as Homo sapiens) [SEK20] |  |  |  |  | 16 ± 1% | 64 ± 2% | 38 ± 4% | 34 ± 4% | 14 ± 2% | 17 ± 5% | 98 ± 2%
GKYGIYTKVSRYVNWIKEKTKLT (listed as Homo sapiens) [GKY23, FA9_HUMAN aa 439-461] |  |  |  |  | 30 ± 5% | 86 ± 4% | 29 ± 2% | 21 ± 2% | 7 ± 2% | 19 ± 1% | 86 ± 7%
